Measured values from patent publication US10722520B2, “Heterocyclic compounds and their use in preventing or treating bacterial infections” (MUTABILIS, priority 2016, dated 2020).
Where a name gives a salt, the structure may show the parent alone. Read-outs that look alike come from different tables or passages of the source.

Experiments:
OXA-15 = OXA-15 (Pseudomonas aeruginosa, UniProt Q51574); experiment: biochemical
SHV-1 = SHV-1 (Klebsiella pneumoniae, UniProt P0AD64)
OXA-1 = OXA-1 (Escherichia coli, UniProt P13661)
CMY-37 = CMY-37 (Citrobacter freundii, UniProt P05193); conditions: read-out: IC50 β-lactamase CMY-37
AmpC (PAE) = AmpC (PAE) (Pseudomonas aeruginosa, UniProt P24735); experiment: biochemical
KPC-2 = KPC-2 (Klebsiella pneumoniae, UniProt Q9F663)
AmpC (P99) = AmpC (P99) (Enterobacter cloacae, UniProt P05364); experiment: biochemical
OXA-48 = OXA-48 (Klebsiella pneumoniae, UniProt Q6XEC0)
K. pneumoniae 6299 = experiment: MIC of compound alone, broth microdilution; type: cell-based; conditions: Klebsiella pneumoniae; strain 6299; compound alone; read-out: MIC compounds of the invention alone
Experimental: (§1) Log phase bacterial suspensions were adjusted to a final density of 5×10^5 cfu/mL in cation-adjusted Mueller-Hinton broth (Becton-Dickinson) and added to each well (98 μL). Microplates were incubated for 16-20 h at 35° C. in ambient air. The MIC of the compounds was defined as the lowest concentration of said compounds that prevented bacterial growth as read by visual inspection.

P. aeruginosa CIP107051 = experiment: MIC of compound alone, broth microdilution; type: cell-based; conditions: Pseudomonas aeruginosa; strain CIP107051; compound alone; read-out: MIC compounds of the invention alone
Experimental: as §1

K. pneumoniae BAA-1898 = experiment: MIC of compound alone, broth microdilution; type: cell-based; conditions: Klebsiella pneumoniae, BAA1898; strain BAA-1898; compound alone; read-out: MIC compounds of the invention alone
Experimental: as §1

E. coli 190317 = experiment: MIC of compound alone, broth microdilution; type: cell-based; conditions: Escherichia coli; strain 190317; compound alone; read-out: MIC compounds of the invention alone
Experimental: as §1

E. cloacae P99 = experiment: MIC of compound alone, broth microdilution; type: cell-based; conditions: Enterobacter cloacae; strain P99; compound alone; read-out: MIC compounds of the invention alone
Experimental: as §1

OXA-11 = OXA-11 (Pseudomonas aeruginosa, UniProt Q06778)
TEM-1 = TEM-1 (Escherichia coli, UniProt P62593)
CTX-M-15 = CTX-M-15 (Escherichia coli, UniProt Q9EXV5)
[1] = class (C), nitrocefin 200 μM, 30-min pre-incubation, enzyme 0.2 nM

SMILES | IC50 (OXA-15) | IC50 (SHV-1) | IC50 (OXA-1) | IC50 (CMY-37) | IC50 (AmpC (PAE)) | IC50 (KPC-2) | IC50 (AmpC (P99)) | IC50 (OXA-48) | MIC (K. pneumoniae 6299) | MIC (P. aeruginosa CIP107051) | MIC (K. pneumoniae BAA-1898) | MIC (E. coli 190317) | MIC (E. cloacae P99) | IC50 (OXA-11) | IC50 (TEM-1) | IC50 (CTX-M-15) | IC50 (CMY-37; [1])
O=C1N2CC(n3cc(F)cn3)=CC(C2)N1OS(=O)(=O)[O-].[Na+] (stereo not drawn) [Example 14, sodium (7-oxo-3-(4-fluoropyrazol-1-yl)-1,6-diazabicyclo[3.2.1]oct-3-en-6-yl) sulfate] | 52 nM | 4 nM | 82 nM | 10 nM | 21 nM | 17 nM | 17 nM | 8.6 nM | 16 µg/mL | > 32 µg/mL | 8 µg/mL | 4 µg/mL | 16 µg/mL | 34 nM | 0.87 nM | 1.8 nM | –
NS(=O)(=O)c1cnn(C2=CC3CN(C2)C(=O)N3OS(=O)(=O)[O-])c1.[Na+] (stereo not drawn) [Example 16, sodium [7-oxo-3-(4-sulfamoylpyrazol-1-yl)-1,6-diazabicyclo[3.2.1]oct-3-en-6-yl]sulfate] | 42 nM | 3.4 nM | 100 nM | 21 nM | 180 nM | 4.6 nM | 13 nM | 12 nM | > 32 µg/mL | > 32 µg/mL | 32 µg/mL | 8 µg/mL | 32 µg/mL | 650 nM | 0.56 nM | 1.4 nM | –
O=C1N2CC(n3ccc(F)n3)=CC(C2)N1OS(=O)(=O)[O-].[Na+] (stereo not drawn) [Example 18, sodium [7-oxo-3-(3-fluoropyrazol-1-yl)-1,6-diazabicyclo[3.2.1]oct-3-en-6-yl]sulfate] | 78 nM | 2.8 nM | 96 nM | 18 nM | 43 nM | 13 nM | 24 nM | 8.2 nM | 4 µg/mL | > 32 µg/mL | 8 µg/mL | 1 µg/mL | 8 µg/mL | 46 nM | 0.43 nM | 0.65 nM | –
NC(=O)c1ccn(C2=CC3CN(C2)C(=O)N3OS(=O)(=O)[O-])n1.[Na+] (stereo not drawn) [Example 19, sodium [3-(3-carbamoylpyrazol-1-yl)-7-oxo-1,6-diazabicyclo[3.2.1]oct-3-en-6-yl]sulfate] | 61 nM | 1.8 nM | 110 nM | 41 nM | 170 nM | 6.2 nM | 19 nM | 5.2 nM | 16 µg/mL | > 32 µg/mL | 16 µg/mL | 4 µg/mL | 8 µg/mL | 27 nM | 0.38 nM | 0.9 nM | –
O=C1N2CC(n3cc(C(F)(F)F)cn3)=CC(C2)N1OS(=O)(=O)[O-].[Na+] (stereo not drawn) [Example 22, sodium [7-oxo-3-[4-(trifluoromethyl)pyrazol-1-yl]-1,6-diazabicyclo[3.2.1]oct-3-en-6-yl]sulfate] | 9.1 nM | 1.1 nM | 180 nM | 12 nM | 78 nM | 3 nM | 17 nM | 4.6 nM | > 32 µg/mL | > 32 µg/mL | > 32 µg/mL | > 32 µg/mL | > 32 µg/mL | 220 nM | 0.21 nM | 0.55 nM | –
O=C(Nc1nccs1)c1ccn(C2=CC3CN(C2)C(=O)N3OS(=O)(=O)[O-])n1.[Na+] (stereo not drawn) [Example 25, sodium [7-oxo-3-[3-(thiazol-2-ylcarbamoyl)pyrazol-1-yl]-1,6-diazabicyclo[3.2.1]oct-3-en-6-yl]sulfate] | 12 nM | 1.2 nM | 37 nM | 9.2 nM | 130 nM | 2.5 nM | 9.4 nM | 1.7 nM | > 32 µg/mL | > 32 µg/mL | > 32 µg/mL | > 32 µg/mL | > 32 µg/mL | 4.2 nM | 0.29 nM | 0.43 nM | –
CC(=O)c1ccn(C2=CC3CN(C2)C(=O)N3OS(=O)(=O)[O-])n1.[Na+] (stereo not drawn) [Example 28, sodium (7-oxo-3-(3-acetylpyrazol-1-yl)-1,6-diazabicyclo[3.2.1]oct-3-en-6-yl) sulfate] | 30 nM | 2.2 nM | 64 nM | 37 nM | 200 nM | 4.8 nM | 10 nM | 3.8 nM | > 32 µg/mL | > 32 µg/mL | > 32 µg/mL | 16 µg/mL | > 32 µg/mL | 29 nM | 0.37 nM | 0.5 nM | –
O=C(NC1CCNCC1)c1ccn(C2=CC3CN(C2)C(=O)N3OS(=O)(=O)O)n1 (stereo not drawn) [Example 32, (7-oxo-3-[3-(4-piperidylcarbamoyl)pyrazol-1-yl]-1,6-diazabicyclo[3.2.1]oct-3-en-6-yl) hydrogen sulfate] | 39 nM | 8.2 nM | 79 nM | – | 210 nM | 6.9 nM | 29 nM | 1.5 nM | 32 µg/mL | > 32 µg/mL | 16 µg/mL | 8 µg/mL | 16 µg/mL | 27 nM | 1.1 nM | 1 nM | 59 nM
O=C(Nc1ccn(C2=CC3CN(C2)C(=O)N3OS(=O)(=O)[O-])n1)c1nccs1.[Na+] (stereo not drawn) [Example 34, sodium {7-oxo-3-[3-(thiazole-2-carbonylamino)pyrazol-1-yl]-1,6-diazabicyclo[3.2.1]oct-3-en-6-yl}sulfate] | 34 nM | 3.1 nM | 130 nM | 6.2 nM | 56 nM | 8.5 nM | 10 nM | 9.4 nM | > 32 µg/mL | > 32 µg/mL | > 32 µg/mL | > 32 µg/mL | > 32 µg/mL | 13 nM | 1 nM | 0.92 nM | –
O=C(Nc1ncco1)c1ccn(C2=CC3CN(C2)C(=O)N3OS(=O)(=O)[O-])n1.[Na+] (stereo not drawn) [Example 37, sodium [7-oxo-3-[3-(oxazol-2-ylcarbamoyl)pyrazol-1-yl]-1,6-diazabicyclo[3.2.1]oct-3-en-6-yl]sulfate] | 32 nM | 3.2 nM | 73 nM | 15 nM | 200 nM | 2.9 nM | 9.7 nM | 2.5 nM | > 32 µg/mL | > 32 µg/mL | > 32 µg/mL | 8 µg/mL | > 32 µg/mL | 21 nM | 0.5 nM | 0.46 nM | –
NCCNC(=O)c1cnn(C2=CC3CN(C2)C(=O)N3OS(=O)(=O)O)c1 (stereo not drawn) [Example 38, [3-[4-(2-aminoethylcarbamoyl)pyrazol-1-yl]-7-oxo-1,6-diazabicyclo[3.2.1]oct-3-en-6-yl]hydrogen sulfate] | 17 nM | 2.5 nM | 180 nM | – | 210 nM | 7.5 nM | 34 nM | 3.2 nM | > 32 µg/mL | 32 µg/mL | > 32 µg/mL | 4 µg/mL | 16 µg/mL | 50 nM | 0.43 nM | 0.7 nM | 38 nM
CC(=O)c1cnn(C2=CC3CN(C2)C(=O)N3OS(=O)(=O)[O-])c1.[Na+] (stereo not drawn) [Example 40, sodium [3-(4-acetylpyrazol-1-yl)-7-oxo-1,6-diazabicyclo[3.2.1]oct-3-en-6-yl]sulfate] | 8.6 nM | 1.8 nM | 150 nM | 8.3 nM | 260 nM | 3.4 nM | 7.5 nM | 6.3 nM | > 32 µg/mL | > 32 µg/mL | > 32 µg/mL | 32 µg/mL | > 32 µg/mL | 95 nM | 0.35 nM | 0.91 nM | –
